Test results reported in patent US10590101B2, “Benzo-N-hydroxy amide compounds having antitumor activity” (ITALFARMACO SPA, priority 2016, dated 2020).
Where two headings read alike, the source gives them in different places.

Experiments:
[1] = system: Pre-B leukemia cell line 697; assay: Primary cytotoxicity screening, 697 cell line (CellTiter 96); format: cell-based; conditions: Table 1; 48 h incubation; read-out: CyTox697
Description: (§1) The cytotoxicity activity was evaluated as follows: • Pre-B leukemia cell line 697 was seeded at 2×10^5 c/well; • Colon carcinoma cell lines HCT116, HT29 and COLO2015 were seeded at 4×10^3, 4×10^3 and 10×10^3 c/well respectively; • Primary human kidney cells were seeded at 1.5×10^3 and 6.5×10^3 in two separate experiments; • Human PBMC were seeded at 5×10^5 c/well; • Colon cancer stem cells (CSC) were seeded at 3×10^3;
(§2) Testing compounds were added after 24 h and incubated for 72 h (48 h for 697 cell line). The concentrations of molecules ranged from 10000 nM to 1.5 nM (10000 to 1 nM for 697 cell line). The cytotoxic activity of compounds was evaluated using the CellTiter 96® Aqueous One Solution Cell Proliferation Assay (Promega) which measures the functionality of mitochondria according to manufacturer's instructions. For Colon cancer stem cells viability was determined with CellTiter-Glo Luminescent cell viability assay (Promega).
(§3) The activity of compounds at any dose is calculated as percentage of inhibition versus vehicle-treated control (=0). The IC50s are extrapolated from the inhibition dose/response curve using GraphPad Prism program.

[2] = system: Colon cancer stem cells (CSC) CSC1; assay: Cytotoxicity in vitro, colon cancer stem cells CSC1 (CellTiter-Glo); format: cell-based; conditions: 72 h incubation
Description: as §1, §2, §3

[3] = system: HCT116 cells; assay: Cytotoxicity in vitro, HCT116 (CellTiter 96 Aqueous One Solution); format: cell-based, human; conditions: for IC50: Homo sapiens, HCT-116, 72 h incubation
Text: The compounds of the present invention are small molecules of formula (I), characterised by the presence of a metal chelating moiety, the benzohydroxamate, an α-aminoacidic N-acylated central core and an α,β-unsaturation at the acyl-moiety. This particular structural feature seems responsible for the high inhibitory activity on cancer stem cell lines and on HCT116 cells (ATCC CCL-247), a human colorectal carcinoma cell line widely used in cancer biology both in vitro and in vivo (Botchkina Cancer Genom Proteom 6, 19-30, 2009; Yeung PNAS 107, 3722-3727, 2010).
as §1, §2, §3

[4] = system: Human PBMC; assay: Cytotoxicity in vitro, PBMC from healthy donors (CellTiter 96); format: cell-based
Description: as §1, §2
(§4) The compound cytotoxicity was confirmed by further assays on two other colon cancer cell lines HT29 (ATCC HTB38) and Colo205 (ATCC CCL222) and on colon cancer stem cells (CSCs) (see table 2 and 3). It is worth noting that cytotoxic activity toward human primary kidney cells and peripheral blood mononuclear cells (PBMC) isolated from healthy donors was lower compared to tumor cells cytotoxicity (see table 4).
as §3

[5] = system: COLO205 colon cancer cell line; assay: Cytotoxicity in vitro, COLO205 (CellTiter 96); format: cell-based; conditions: Homo sapiens, COLO 205; 72 h incubation; read-out: COLO205 IC 50
Description: as §1, §2, §4, §3

[6] = system: Colon cancer stem cells (CSC) CSC3; assay: Cytotoxicity in vitro, colon cancer stem cells CSC3 (CellTiter-Glo); format: cell-based; conditions: 72 h incubation; read-out: CSC3 IC 50
Description: as §1, §2, §3

[7] = system: HCT116 xenograft; assay: Antitumor activity in vivo, sc xenograft model of colon cancer; parameters: species or system CD1 nude female mice; conditions: ip
Description: Female CD-1 nude mice, 5 weeks of age and 20 to 22 g of weight, were housed in the animal house of the Italfarmaco Research Centre. Mice were maintained in micro isolator cages and supplied with sterile food and water under standard conditions.
Xenografts were generated by sc injection of 7×10^6 HCT116 cells in the right flank of the animals.
Tumor sizes were determined by caliper measurements and tumor volumes were calculated according to the following formula: Tumor volume (mm^3)=(w2×1)/2 where “w” is the width and “l” is the length of the carcinoma in mm.
Tumor growth was followed by volume measurement three times a week.
Tumor mass reached a measurable size three weeks after transplantation, at this time, treatments began.
Two reference compounds were also used in the experiment. The cinnamic hydroxamic acid panobinostat and 5-FU. The compounds were administered at the MTD according to previous experiments or as described in the literature.

[8] = system: HT29 colon cancer cell line; assay: Cytotoxicity in vitro, HT29 (CellTiter 96); format: cell-based; conditions: Homo sapiens, HT-29; 72 h incubation; read-out: HT29 IC 50
Description: as §1, §2, §4, §3

[9] = system: Colon cancer stem cells (CSC) CSC2; assay: Cytotoxicity in vitro, colon cancer stem cells CSC2 (CellTiter-Glo); format: cell-based; conditions: 72 h incubation; read-out: CSC2 IC 50
Description: as §1, §2, §3

[10] = system: Primary human kidney cells; assay: Cytotoxicity in vitro, primary renal cells (CellTiter 96); format: cell-based
Description: as §1, §2, §4, §3

[11] = Force degradation test (chemical stability); format: physicochemical
[12] = Table 2, read-out: HCT-116 IC 50
[13] = PBMC 1, 72 h incubation, read-out: PBMC 1 IC 50
[14] = PBMC 2, 72 h incubation, read-out: PBMC 2 IC 50
[15] = Renal.ep1, 72 h incubation, read-out: Renal.ep1 IC 50
[16] = Renal.ep2, 72 h incubation, read-out: Renal.ep2 IC 50

Row | Compound | IC50 [1] [nM] | IC50 ([2]; Table 1, read-out: CSC1) [nM] | IC50 ([3]; Table 1, read-out: HCT116) [nM] | further results
1 | COc1ccc(C[C@H](NC(=O)/C=C/c2ccc3c(c2)OCO3)C(=O)Nc2ccc(C(=O)NO)cc2)cc1 [drawing 46] | 3 | 192 | 18 | –
2 | COc1ccc(C[C@H](NC(=O)c2ccc3c(c2)OCO3)C(=O)Nc2ccc(C(=O)NO)cc2)cc1 | 21 | 24 | 24 | –
3 | COc1ccc(C[C@H](NC(=O)c2ccccc2)C(=O)Nc2ccc(C(=O)NO)cc2)cc1 | 54 | 48 | 76 | –
4 | COc1ccc(C[C@H](NC(=O)COc2ccccc2)C(=O)Nc2ccc(C(=O)NO)cc2)cc1 | 44 | – | 194 | –
5 | O=C(NO)c1ccc(NC(=O)[C@H](Cc2ccccc2)NC(=O)c2ccccc2)cc1 | 105 | 96 | 184 | –
6 | COc1ccc(C[C@H](NC(=O)/C=C/c2ccccc2)C(=O)Nc2ccc(C(=O)NO)cc2)cc1 [Compound 2D, (2S)—N-[4-(hydroxycarbamoyl)phenyl]-3-(4-methoxyphenyl)-2-[[(E)-3-phenylprop-2-enoyl]amino]propanamide] | – | – | – | IC50 ([2]; Table 3, read-out: CSC1 IC 50): 50 nM; IC50 [3, 12]: 14 nM; IC50 [4, 13]: 89 nM; IC50 [4, 14]: 42 nM; IC50 [5]: 73 nM; IC50 [6]: 70 nM; % inhib tumor vs CTRL after 44 days of treatment ([7]; 1 mg/kg): 33%; IC50 [8]: 61 nM; IC50 [9]: 100 nM
7 | COc1ccc(C[C@H](NC(=O)Cc2ccc3c(c2)OCO3)C(=O)Nc2ccc(C(=O)NO)cc2)cc1 | 168 | 280 | 554 | –
8 | O=C(/C=C/c1ccccc1)N[C@@H](Cc1ccccc1)C(=O)Nc1ccc(C(=O)NO)cc1 [Compound 5D, (2S)—N-[4-(hydroxycarbamoyl)phenyl]-3-phenyl-2-[[(E)-3-phenyl-2-enoyl]amino]propanamide] | – | – | – | IC50 ([2]; Table 3, read-out: CSC1 IC 50): 26 nM; IC50 [3, 12]: 14 nM; IC50 [4, 13]: 147 nM; IC50 [4, 14]: 595 nM; IC50 [5]: 221 nM; IC50 [10, 15]: 1060 nM; IC50 [10, 16]: 511 nM; IC50 [6]: 230 nM; % inhib tumor vs CTRL after 44 days of treatment ([7]; 5 mg/kg): 46%; IC50 [8]: 197 nM; IC50 [9]: 102 nM
9 | O=C(NO)c1ccc(NC(=O)[C@H](Cc2ccccc2)NC(=O)c2ccc3c(c2)OCO3)cc1 | 18 | – | 79 | –
10 | O=C(/C=C/c1ccc2c(c1)OCO2)N[C@@H](Cc1ccccc1)C(=O)Nc1ccc(C(=O)NO)cc1 [drawing 55] | 85 | 37 | 11 | –
11 | COc1ccc(C[C@H](NC(=O)CCc2ccccc2)C(=O)Nc2ccc(C(=O)NO)cc2)cc1 | 53 | 136 | 431 | –
12 | O=C(Cc1ccc2c(c1)OCO2)N[C@@H](Cc1ccccc1)C(=O)Nc1ccc(C(=O)NO)cc1 | 127 | 208 | 1070 | –
13 | COc1ccc(C[C@H](NC(=O)/C=C/c2ccccc2)C(=O)Nc2ccc(C(=O)NO)cc2)cc1 [drawing 50] | 22 | 40 | 13 | –
14 | COc1ccc(C[C@H](NC(=O)/C=C/c2ccc3c(c2)OCO3)C(=O)Nc2ccc(C(=O)NO)cc2)cc1 [Compound 1D, (2S)-2-[[(E)-3-(1,3-benzodioxol-5-yl)prop-2-enoyl]amino]-N-[4-(hydroxycarbamoyl)phenyl]-3-(4-methoxyphenyl)propanamide] | – | – | – | IC50 ([2]; Table 3, read-out: CSC1 IC 50): 19 nM; IC50 [3, 12]: 18 nM; IC50 [4, 13]: 80 nM; IC50 [4, 14]: 152 nM; IC50 [5]: 146 nM; IC50 [10, 15]: 462 nM; IC50 [10, 16]: 321 nM; IC50 [6]: 85 nM; % inhib tumor vs CTRL after 44 days of treatment ([7]; 0.5 mg/kg): 23%; % inhib tumor vs CTRL after 44 days of treatment ([7]; 1 mg/kg): 22%; IC50 [8]: 157 nM; IC50 [9]: 114 nM
15 | O=C(Cc1ccccc1)N[C@@H](Cc1ccccc1)C(=O)Nc1ccc(C(=O)NO)cc1 | 90 | 192 | 237 | –
16 | O=C(CCc1ccccc1)N[C@@H](Cc1ccccc1)C(=O)Nc1ccc(C(=O)NO)cc1 | 770 | 332 | 806 | –
17 | O=c1[nH]cc(F)c(=O)[nH]1 [Compound 5-FU, 5-FU, reference compound] | – | – | – | % inhib tumor vs CTRL after 44 days of treatment ([7]; 10 mg/kg): 36%; % inhib tumor vs CTRL after 44 days of treatment ([7]; 70 mg/kg, once a week): 61%
18 | COc1ccc(C[C@H](NC(=O)CCc2ccc3c(c2)OCO3)C(=O)Nc2ccc(C(=O)NO)cc2)cc1 | 496 | 400 | 702 | –
19 | O=C(/C=C/c1ccccc1)N[C@@H](Cc1ccccc1)C(=O)Nc1ccc(C(=O)NO)cc1 [drawing 59] | 45 | 73 | 10 | –
20 | O=C(/C=C/c1ccc2c(c1)OCO2)N[C@@H](Cc1ccccc1)C(=O)Nc1ccc(C(=O)NO)cc1 [Compound 4D, (2S)-2-[[(E)-3-(1,3-benzodioxol-5-yl)prop-2-enoyl]amino]-N-[4-(hydroxycarbamoyl)phenyl]-3-phenyl-propanamide] | – | – | – | IC50 ([2]; Table 3, read-out: CSC1 IC 50): 13 nM; IC50 [3, 12]: 19 nM; IC50 [4, 13]: 359 nM; IC50 [4, 14]: 601 nM; IC50 [5]: 201 nM; IC50 [10, 15]: 778 nM; IC50 [6]: 91 nM; % inhib tumor vs CTRL after 44 days of treatment ([7]; 5 mg/kg): 54%; % inhib tumor vs CTRL after 44 days of treatment ([7]; 10 mg/kg): 39%; IC50 [8]: 215 nM; IC50 [9]: 102 nM
21 | COc1ccc(C[C@H](NC(=O)Cc2ccccc2)C(=O)Nc2ccc(C(=O)NO)cc2)cc1 | 72 | 160 | 316 | –
22 | Cc1[nH]c2ccccc2c1CCNCc1ccc(/C=C/C(=O)NO)cc1 [Panobinostat, panobinostat, reference compound] | – | – | – | % inhib tumor vs CTRL after 44 days of treatment ([7]; 1 mg/kg): 34%
23 | O=C(CCc1ccc2c(c1)OCO2)N[C@@H](Cc1ccccc1)C(=O)Nc1ccc(C(=O)NO)cc1 | 203 | 336 | 900 | –
24 | O=C(COc1ccccc1)N[C@@H](Cc1ccccc1)C(=O)Nc1ccc(C(=O)NO)cc1 | 59 | 424 | 466 | –
25 | O=C(/C=C\c1ccccc1)N[C@@H](Cc1ccccc1)C(=O)Nc1ccc(C(=O)NO)cc1 [Compound 5DZ, (S,Z)—N-hydroxy-4-(3-phenyl-2-(3-phenylacrylamido)propanamido)benzamide] | – | – | – | potency on HCT116 cells compared with the trans-form ([3]; cis-form vs trans-form): less potent; stability at high temperatures ([11]; 15 days at 80° C.): little less stable; stability at low pH ([11]; 15 days at pH 2): definitely less stable; chemical stability compared with the trans ([11]; cis-form vs trans): chemically less stable
